{"source": "patent US20070130640A1", "about": "“Methods of modulating auxin production in plants” (priority 2005, published 2007)", "molecules": {"B1": {"name": "CYP83B1 (Arabidopsis thaliana) (protein)", "chain": "MDLLLIIAGLVAAAAFFFLRSTTKKSLRLPPGPKGLPIIGNLHQMEKFNPQHFLFRLSKLYGPIFTMKIGGRRLAVISSAELAKELLKTQDLNFTARPLLKGQQTMSYQGRELGFGQYTAYYREMRKMCMVNLFSPNRVASFRPVREEECQRMMDKIYKAADQSGTVDLSELLLSFTNCVVCRQAFGKRYNEYGTEMKRFIDILYETQALLGTLFFSDLFPYFGFLDNLTGLSARLKKAFKELDTYLQELLDETLDPNRPKQETESFIDLLMQIYKDQPFSIKFTHENVKAMILDIVVPGTDTAAAVVVWAMTYLIKYPEAMKKAQDEVRSVIGDKGYVSEEDIPNLPYLKAVIKESLRLEPVIPILLHRETIADAKIGGYDIPAKTIIQVNAWAVSRDTAAWGDNPNEFIPERFMNEHKGVDFKGQDFELLPFGSGRRMCPAMHLGIAMVEIPFANLLYKFDWSLPKGIKPEDIKMDVMTGLAMHKKEHLVLAPTKHI"}}, "key": {"NIT1": {"target": "T1, NIT1 (Arabidopsis thaliana, UniProt P32961)", "T1 sequence (P32961 1-346)": "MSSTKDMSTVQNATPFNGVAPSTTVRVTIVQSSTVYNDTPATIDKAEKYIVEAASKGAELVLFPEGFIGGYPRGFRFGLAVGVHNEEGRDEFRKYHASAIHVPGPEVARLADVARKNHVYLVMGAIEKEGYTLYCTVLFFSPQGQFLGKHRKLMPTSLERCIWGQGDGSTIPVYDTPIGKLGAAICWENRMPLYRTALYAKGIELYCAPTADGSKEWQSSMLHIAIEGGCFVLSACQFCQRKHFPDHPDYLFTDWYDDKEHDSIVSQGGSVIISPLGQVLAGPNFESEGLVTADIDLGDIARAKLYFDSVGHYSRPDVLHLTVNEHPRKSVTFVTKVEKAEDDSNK", "conditions": "cited from earlier work"}, "Arabidopsis seedlings": {"tested_on": "Arabidopsis seedlings", "test": "Seedling growth on media supplemented with IAN (auxin phenotype)", "type": "in vivo", "description": "Four nitrilases, differentially expressed during development and in response to environmental cues, catalyze hydrolysis of IAN to IAA in Arabidopsis (Bartel and Fink (1994) Proc. Natl. Acad. Sci. USA 91:6649-6653). The nitl mutant is insensitive to the auxin effects of exogenously applied IAN at the seedling stage (Normanly et al. (1997) Plant Cell 9:1781-1790). In accordance with the observed insensitivity of nit1 seedlings to IAN, NIT1 is most strongly expressed in the hypocotyl near the junction with the root in young seedlings as well as in the cotyledons. In contrast, NIT2 and NIT3 are expressed primarily in the cotyledons and NIT4 is expressed in the root tip (Bartel and Fink (1994) Proc. Natl. Acad. Sci. USA 91:6649-6653)."}, "NIT2": {"target": "T2, NIT2 (Arabidopsis thaliana, UniProt P32962)", "T2 sequence (P32962 1-339)": "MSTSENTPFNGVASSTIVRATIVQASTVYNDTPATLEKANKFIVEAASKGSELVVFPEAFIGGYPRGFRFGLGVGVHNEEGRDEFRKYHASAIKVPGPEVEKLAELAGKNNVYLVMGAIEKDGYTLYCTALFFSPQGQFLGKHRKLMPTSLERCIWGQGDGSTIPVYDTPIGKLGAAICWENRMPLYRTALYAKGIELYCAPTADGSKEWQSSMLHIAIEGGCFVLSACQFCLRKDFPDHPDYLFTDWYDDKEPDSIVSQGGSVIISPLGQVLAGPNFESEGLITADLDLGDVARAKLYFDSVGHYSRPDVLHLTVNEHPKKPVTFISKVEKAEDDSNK", "conditions": "cited from earlier work"}, "CYP83B1 [1]": {"target": "T3, CYP83B1 (Arabidopsis thaliana, UniProt O65782)", "T3 sequence (O65782 1-499)": "B1 chain", "test": "CYP83B1 catalysis of [5-3H]indole-3-acetaldoxime metabolism (Km, Vmax, inhibition; TLC / scintillation counting)", "description": "(§1) FIG. 3. (A) Analysis of CYP83B1 by optical difference spectroscopy. […] After incubation for 10 min at 28° C., reaction mixtures were extracted with ethylacetate and analyzed by TLC. (s) substrate, (p) product.\nAfter incubation, reaction mixtures were stopped by adding SDS to 0.4% and were analyzed by thin layer chromatography (TLC). TLC plates were developed in chloroform/methanol/water (85:14:1) and radioactive bands visualized by autoradiography.\nReactions were stopped and extracted with ethylacetate. Aliquots of the substrate-containing ethylacetate phase and product-containing water phase were subjected to liquid scintillation counting."}, "CYP83B1 [2]": {"target": "T3, CYP83B1", "test": "Spectral analysis (optical difference spectroscopy) of ligand binding to heterologously expressed CYP83B1 in yeast microsomes", "description": "as §1"}, "wild type seedlings": {"tested_on": "wild type seedlings", "test": "Indole glucosinolate levels in seedlings grown on MS agar, quantified colorimetrically as SCN", "type": "in vivo, Arabidopsis", "conditions": "wild type seedlings germinated on MS media with 100 μM tryptamine; two week old; n=10", "description": "FIG. 6. Indole glucosinolate levels are affected by CYP83B1 expression. Indole glucosinolates in individual two week old seedlings grown on MS agar were quantified calorimetrically as SCN. 1) Wild type, 2) rnt1-1, 3) molecularly complemented line 3.25.11, 4) overexpression line 1.4.7, and 5) wild type grown on 100 μM tryptamine. Data are represented as the mean ±S.E, (n=10 seedlings). Except for the molecularly complemented line 3.25.11, mean indole glucosinolate values all differ from wild type seedling values at a 1% confidence value (t-test).\nTryptophan-derived indole-3-acetaldoxime is also an intermediate in the biosynthesis of indole glucosinolates."}, "[3]": {"substrate": "ON=CCc1c[nH]c2ccccc12", "test": "purified protein, by the assay type", "conditions": "other: in the presence of cysteine, 2.2 nM CYP83B1, 1 min at 28 °C, estimated, pH 7.6"}}, "note": "Read-outs that look alike come from different tables or passages of the source.", "data": [{"molecule": "N#CCc1c[nH]c2ccccc12", "note": "[IAN, indole-3-acetonitrile]", "values": [{"measurement": "Km for IAN hydrolysis", "setting": "NIT1", "value": "in the mM range"}, {"measurement": "effect on rnt1-1 seedlings (germination)", "setting": "Arabidopsis seedlings; rnt1-1 seedlings grown on 50 μM IAN", "value": "almost completely inhibiting germination"}, {"measurement": "phenotype of wild type seedlings", "setting": "Arabidopsis seedlings; wild type Arabidopsis seedlings on media with 50 μM IAN", "value": "phenocopy rnt1-1 seedlings"}, {"measurement": "Km for IAN hydrolysis", "setting": "NIT2", "value": "in the mM range"}]}, {"molecule": "ON=CCc1c[nH]c2ccccc12", "note": "[indole-3-acetaldoxime]", "values": [{"measurement": "turnover (number)", "setting": "CYP83B1 [1]; in the presence of cysteine, 2.2 nM CYP83B1, 1 min at 28 °C", "value": 53, "unit": "min⁻¹"}, {"measurement": "type of binding spectrum caused", "setting": "CYP83B1 [2]", "value": "weak reverse type I spectrum"}]}, {"molecule": "NCCc1c[nH]c2ccccc12", "note": "[tryptamine]", "values": [{"measurement": "indole glucosinolate levels compared to wild type seedlings", "setting": "wild type seedlings", "value": "reduced levels"}, {"measurement": "inhibition of CYP83B1 catalysis (indole-3-acetaldoxime oxidation)", "setting": "CYP83B1 [1]; 22 nM CYP83B1, 35 μM [5-3H]indole-3-acetaldoxime, 17.5 mM tryptamine, 10 min at 28 °C, TLC (FIG. 3B)", "value": "inhibitor"}, {"measurement": "type of binding spectrum caused", "setting": "CYP83B1 [2]; yeast microsomes containing CYP83B1", "value": "typical type IIa binding spectrum"}]}, {"molecule": "B1", "values": [{"measurement": "Km", "setting": "[3]", "value": 3, "unit": "µM"}]}]}
